# Test system: 4T1 tumor cells
# Experiment: Mouse bone metastasis model, intratibial 4T1 cells
# Assay type: in vivo, mouse (BALB/c)
# Settings: for survival rate compared with the other groups: FIG. 8, days 13-27; for clinical signs scoring compared with the other groups: FIG. 9, days 0-27, high scoring = more clinical signs
# From the text: The purpose of this study was to assess the potential therapeutic efficacy of ACC stabilized with triphosphate (ACC-TP) on the development and progression of bone metastases in mouse model via intraperitoneal (IP) injections. The model is induced by intra osseous inoculation of 4T1 tumor cells (cells originated from mice mammary gland tumor). Two ACC concentrations were examined. Their efficacy was compared to CaCl2 as a control calcium source and to a common treatment of bone metastases (Bisphosphonate—Alendronic acid).
# The study was designed in order to assess the potential therapeutic efficacy of ACC-TP via intraperitoneal (IP) injections, on the development and progression of bone metastases in mouse model. The cancer model was induced by Intratibial injections of cancer cells to the Tibia bone. Intratibial injections are used when focusing on the relationships of cancer cells and bone after a tumor has metastasized, thus is considered the most appropriate for such studies.
# Female mice (BALB/c, 9 weeks old) were used for the experiment. […] Initial body weight was 16-19 gr. The mice were let to acclimatize 5 days prior to the experiment.
# The first control or test items administration day was defined as “Day 1”. On study day “0” all mice were anesthetized used intraperitoneal injection of Ketamine (80 mg/kg) and Xylazine (5 mg/kg). 4T1 (CRL-2539, B1) cells were injected intratibial into the Tibia in a dose level of 70×10^3 cells and dose volume of 10 μl per animal.
# The control or test Items comprising calcium were administered intraperitoneally by a 25 G needle, daily (6 days a week) from Day 1 until study termination. The Alendronic acid was administered subcutaneously once a day, 3 days a week.
# At study termination (Day 23 and Day 27), animals were […] by CO2 asphyxiation.
# The following measurements and observations were recorded: (i) Mortality and morbidity (daily); (ii) Clinical signs observations (twice a week); (iii) Body weight measurements (once a week and at study termination); (iv) Radiographic analysis; and (v) Amount of food and water consumption (once a week).
# Observations were performed for any changes in skin, fur, eyes, mucous membranes, respiratory, occurrence of secretions and excretions (e.g. diarrhea). Changes in gait, posture and response to handling, as the presence of bizarre behavior, tremors, convulsions, sleep and coma were also included.
# X-ray monitoring were performed at Day “0” and Day “20” (X-ray generator Girth 8015).
# [1] = after intratibial 4T1 injection on day 0
SMILES,survival rate compared with the other groups,clinical signs scoring compared with the other groups,day up to which no mice had deceased [1] [days],overall performance / therapeutic effect (conclusion from survival rate and clinical signs),mice deceased as early as day [1] [days],survival percentages (up to day 23 of study duration)
NCCCC(O)(P(=O)(O)O)P(=O)(O)O [Alendronic acid],survival rate is lower,highest scoring of clinical signs,19,worst performance,–,–
"[Ca+2].[Cl-].[Cl-] [CaCl2, calcium chloride]",lower survival percentage,higher number of clinical signs,–,–,16,higher than 75%
